Experimental data published in US20110263454A1, “Methods of Identifying Functional Characteristics of Promoters, Transcription Modifying Proteins and Transcription Modulating Agents” (Salk Institute for Biological Studies, priority 2008, published 2011).

What was measured:
[1] = system: Bmal1 promoter; assay: NHR-promoter luciferase screen, Bmal1 promoter; assay type: cell-based, mouse; details: for Luc. act., normalized to lacZ / Normalized Luc. act., normalized to control: Bmal1 promoter, HR component without or with ligand; for mBmal1 promoter reporter activity: transcription factor +/- ligand, control = 1.00
Protocol: (§1) The use, feasibility, and reproducibility of the functional NHR-promoter screen in a 48-well format have been tested validated. Briefly, there were co-expressed 50 ng of each NHR/NHR homodimer or NHR/RXR heterodimer with 100 ng promoter/luciferase construct and 50 ng of LacZ (as a control for transfection efficiency) in CV-1 cells using Fugene HD (Roche) as a transfection reagent (alternatively or additionally, a CMV-YFP construct can be used as a transfection control). Each of the nuclear hormone receptors that were used in these experiments was cloned into a pcDNA3.1 vector and comprised a C-terminally linked V5H6 tag. Twenty-four hours after transfection, appropriate ligands were added, where applicable, (see Table 5 for various ligands and concentrations and after 48 hrs, samples were assayed for luciferase and LacZ activity. To measure for luciferase activity 15 ul of sample was added to 30 ul of luciferase buffer (20 mM tricine, 1.07 mM MgCarbonate, 2.67 mM MgSulfate, 0.1 mM Naz-EDTA, 5 mM DTT, 5 mM ATP, 0.15 mg/ml CoA, 0.5 mM Luciferin), mixed briefly, and run in a Perkin Elmer Victor 5 luminometer. Thus, the functional NHR-promoter screen was used to observe the transcriptional activity of 29 promoters from various physiological pathways including inflammation, lipid and sugar metabolism, cholesterol transport, xenobiotic metabolism, and circadian rhythm.
(§2) The promoters that facilitate transcription of the indicated gene products that were tested using the protocols described herein are listed in the first row of the table. The nuclear hormone receptors and, where applicable, ligands that were assayed for their transcriptional effects on the promoters are listed in the first column of the table. The data represent the luciferase activity of each sample normalized to both the lacZ activity of that sample and to a control, e.g., no NHR or ligand, as customary in the art. As described previously, these normalizations allow the transcriptional activity of each reporter cell to be compared to other samples.
(§3) Tables 7-40 show the transcriptional effects of the hormone receptors, and, where applicable, ligands (orphan receptors are screened without ligand), on each individual promoter. […] The control data of each table are shown in their last rows.

[2] = system: hCAR promoter; assay: NHR-promoter luciferase screen, hCAR promoter; assay type: cell-based, human; details: for luciferase activity normalized to lacZ activity and to a control, hCAR: hCAR promoter-luciferase, CV-1 cells, NHR +/- ligand, control = 1.00; for Luc. act., normalized to lacZ / Normalized Luc. act., normalized to control: hCAR promoter, HR/ligand component
Protocol: as §1, §2, §3

[3] = system: mCAR promoter; assay: NHR-promoter luciferase screen, mCAR promoter; assay type: cell-based, mouse; details: for luciferase activity normalized to lacZ activity and to a control, mCAR: mCAR promoter-luciferase, CV-1 cells, NHR +/- ligand, control = 1.00; for Luc. act., normalized to lacZ / Normalized Luc. act., normalized to control: mCAR promoter, HR/ligand component
Protocol: as §1, §2, §3

[4] = system: mUCP2 promoter; assay: NHR-promoter luciferase screen, mUCP2 promoter; assay type: cell-based, mouse; details: for Luc. act., normalized to lacZ / Normalized Luc. act., normalized to control: mUCP2 promoter reporter, co-transfected HR, with or without its ligand; for Normalized Luc. act., normalized to control: relative to control; for luciferase activity normalized to lacZ activity and to a control, mUCP2: mUCP2 promoter-luciferase, CV-1 cells, NHR +/- ligand, control = 1.00
Protocol: as §1, §2, §3

[5] = system: mNPY promoter; assay: NHR-promoter luciferase screen, mNPY promoter; assay type: cell-based, mouse; details: for Results of assays of transcription factor (+/- ligand) with mNPY: Table 6d, luciferase activity relative to control (control = 1.00); for Luc. act., normalized to lacZ / Normalized Luc. act., normalized to control: mNPY promoter, HR component with or without ligand; for Normalized Luc. act., normalized to control: relative to control
Protocol: as §1, §2, §3

[6] = system: mAdiponectin promoter; assay: NHR-promoter luciferase screen, mAdiponectin promoter; assay type: cell-based, mouse; details: for Luc. act., normalized to lacZ / Normalized Luc. act., normalized to control: Adiponectin, HR component without or with its ligand; for mAdiponectin promoter reporter activity: transcription factor +/- ligand, control = 1.00
Protocol: as §1, §2, §3

Substance	Luc. act., normalized to lacZ [1]	Normalized Luc. act., normalized to control [1]	mBmal1 promoter reporter activity [1]	luciferase activity normalized to lacZ activity and to a control, hCAR [2]	Luc. act., normalized to lacZ [2]	Normalized Luc. act., normalized to control [2]	luciferase activity normalized to lacZ activity and to a control, mCAR [3]	Luc. act., normalized to lacZ [3]	Normalized Luc. act., normalized to control [3]	Luc. act., normalized to lacZ [4]	Normalized Luc. act., normalized to control [4]	luciferase activity normalized to lacZ activity and to a control, mUCP2 [4]	Results of assays of transcription factor (+/- ligand) with mNPY [5]	Luc. act., normalized to lacZ [5]	Normalized Luc. act., normalized to control [5]	Luc. act., normalized to lacZ [6]	Normalized Luc. act., normalized to control [6]	mAdiponectin promoter reporter activity [6]
AR: Androsterone Receptor (NR3C4), cDNA driver	13.5	0.9	0.86	0.89	28.0	0.9	0.81	30.88	0.8	196.6	1.8	1.79	1.12	93.8	1.1	82.7	1.3	1.32
ERR1: Estrogen Related Receptor α (NR3B1, ERRa), cDNA driver	13.6	0.9	0.87	0.82	25.8	0.8	1.07	40.9	1.1	121.6	1.1	1.11	0.83	69.6	0.8	49.2	0.8	0.78
GR: Glucocorticoid Receptor (NR3C1), cDNA driver	13.2	0.8	0.84	0.36	11.25	0.4	0.23	8.74	0.2	59.4	0.5	0.54	0.57	47.8	0.6	33.2	0.5	0.53
LXRa: Liver X Receptor α (NR1H3), cDNA driver	19.7	1.3	1.26	1.87	58.9	1.9	0.78	29.5	0.8	262.7	2.4	2.39	0.67	56.2	0.7	60.7	1.0	0.97
NR4a1: NR4a1 (NR4A1; NUR77), nuclear hormone receptor cDNA driver	15.7	1.0	1.00	0.97	30.7	1.0	0.94	35.66	0.9	265.6	2.4	2.42	0.92	77.0	0.9	85.6	1.4	1.36
